# Assay results from ChEMBL document CHEMBL5725609, “1H-pyrazolo[3,4-b]pyridines and therapeutic uses thereof” (2018).
# Several values for one entry are separate records, joined by “and”; a condition that tells them apart may be missing. Equal values may be shown once.
# Experiment: Wnt APC Inhibition Assay: Reporter cell lines can be generated by stably transducing cells of cancer cell lines (e.g., colon cancer) with a lentiviral construct that include a wnt-responsive promoter driving expression of the firefly luciferase gene.Lentiviral constructs can be made in which the SP5 promoter, a promoter having eight TCF/LEF binding sites derived from the SP5 promoter, is linked upstream of the firefly luciferase gene. The lentiviral constructs can also include a hygromycin resistance gene as a selectable marker. The SP5 promoter construct can be used to transduce SW480 cells, a colon cancer cell line having a mutated APC gene that generates a truncated APC protein, leading to de-regulated accumulation of β-catenin. […] Compounds from a small molecule compound library can then be added to the wells in half-log dilutions using a ten micromolar top concentration. A series of control wells for each cell type receive only buffer and compound solvent. Twenty-four to forty hours after the addition of compound, reporter activity for luciferase can be assayed, for example, by addition of the BrightGlo luminescence reagent (Promega) and the Victor3 plate reader (Perkin Elmer). Readings can be normalized to DMSO only treated cells, and normalized activities can then be used in the IC50 calculations.
smiles,measurement,value
CC(C)(C)C(=O)Nc1cncc(-c2cnc3[nH]nc(-c4nc5c(-c6cccc(F)c6)cncc5[nH]4)c3c2)c1,IC50,38 nM and 6 nM
